Measurements published in ChEMBL document CHEMBL4130392, “Eugenol derived immunomodulatory molecules against visceral leishmaniasis” (Eur J Med Chem, 2017).

Key:
Leishmania donovani [1] = test: Antileishmanial activity against Leishmania donovani MHOM/IN/AG/83 amastigotes infected in BALB/c mouse peritoneal macrophages after 42 hrs by Giemsa staining-based microscopic analysis; format: functional, organism-based; conditions: MHOM/IN/AG/83, 42 h
Leishmania donovani [2] = test: Antileishmanial activity against Leishmania donovani MHOM/IN/AG/83 promastigotes after 48 hrs by MTT assay; format: functional, organism-based; conditions: MHOM/IN/AG/83, 48 h
Peritoneal macrophage [3] = test: Cytotoxicity against BALB/c mouse peritoneal macrophages after 48 hrs by MTT assay; format: cell-based
[4] = Therapeutic index, ratio of EC50 for BALB/c mouse peritoneal macrophages to EC50 for Leishmania donovani MHOM/IN/AG/83 amastigotes; format: toxicity; conditions: read-out: Ratio EC50
Peritoneal macrophage [5] = test: Induction of NO generation in Leishmania donovani MHOM/IN/AG/83 infected BALB/c mouse peritoneal macrophages assessed as nitrite levels after 48 hrs by Griess assay relative to untreated control; format: functional; further: test concentration or dose not given here
RAW264.7 = test: Cytotoxicity against mouse RAW264.7 cells after 48 hrs by MTT assay; format: cell-based; conditions: RAW264.7, 48 h
[6] = Therapeutic index, ratio of IC50 for mouse RAW264.7 cells to IC50 for Leishmania donovani MHOM/IN/AG/83 promastigotes; format: toxicity; conditions: read-out: Ratio IC50

C=CCc1ccc(OC(=O)[C@@H](N)Cc2c[nH]c3ccccc23)c(OC)c1
EC50 (Leishmania donovani [1]): 21.6 µM | IC50 (Leishmania donovani [2]): 53 µM | EC50 (Peritoneal macrophage [3]): 471 µM | selectivity ratio [4]: 22.1 | Activity (Peritoneal macrophage [5]): Dose-dependent effect | Activity (Peritoneal macrophage [5]; record 2): 28.78 µM | IC50 (RAW264.7): 451 µM | selectivity ratio [6]: 8.6

C=CCc1ccc(OC(=O)CCCCCC)c(OC)c1
EC50 (Leishmania donovani [1]): 59.6 µM | IC50 (Leishmania donovani [2]): 103 µM | EC50 (Peritoneal macrophage [3]): 491 µM | selectivity ratio [4]: 8.3 | Activity (Peritoneal macrophage [5]): Dose-dependent effect | Activity (Peritoneal macrophage [5]; record 2): 25.84 µM | IC50 (RAW264.7): 512 µM | selectivity ratio [6]: 4.95

C[C@@H]1[C@H](O)[C@@H](C)/C=C/C=C/C=C/C=C/C=C/C=C/C=C/[C@H](O[C@@H]2O[C@H](C)[C@@H](O)[C@H](N)[C@@H]2O)C[C@@H]2O[C@](O)(C[C@@H](O)C[C@@H](O)[C@H](O)CC[C@@H](O)C[C@@H](O)CC(=O)O[C@H]1C)C[C@H](O)[C@H]2C(=O)O [AMPHOTERICIN B]
EC50 (Leishmania donovani [1]): 1.18 µM | IC50 (Leishmania donovani [2]): 1.36 µM | EC50 (Peritoneal macrophage [3]): 9.18 µM | selectivity ratio [4]: 7.78 | Activity (Peritoneal macrophage [5]): Dose-dependent effect | IC50 (RAW264.7): 10 µM | selectivity ratio [6]: 7.4

C=CCc1ccc(OCCCCCCCC)c(OC)c1
EC50 (Leishmania donovani [1]): 48.7 µM | IC50 (Leishmania donovani [2]): 62.3 µM | EC50 (Peritoneal macrophage [3]): 393 µM | selectivity ratio [4]: 8.3 | Activity (Peritoneal macrophage [5]): Dose-dependent effect | Activity (Peritoneal macrophage [5]; record 2): 26.01 µM | IC50 (RAW264.7): 357 µM | selectivity ratio [6]: 5.85

C=CCc1ccc(OC(=O)c2ccccc2Cl)c(OC)c1
EC50 (Leishmania donovani [1]): 57.9 µM | IC50 (Leishmania donovani [2]): 64.5 µM | EC50 (Peritoneal macrophage [3]): 275 µM | selectivity ratio [4]: 4.79 | Activity (Peritoneal macrophage [5]): Dose-dependent effect | Activity (Peritoneal macrophage [5]; record 2): 14.58 µM | IC50 (RAW264.7): 251 µM | selectivity ratio [6]: 3.91

C=CCc1ccc(OC(=O)Cc2ccccc2)c(OC)c1
EC50 (Leishmania donovani [1]): 9.28 µM | IC50 (Leishmania donovani [2]): 33.4 µM | EC50 (Peritoneal macrophage [3]): 385 µM | selectivity ratio [4]: 41.8 | Activity (Peritoneal macrophage [5]): Dose-dependent effect | Activity (Peritoneal macrophage [5]; record 2): 36.45 µM | IC50 (RAW264.7): 391 µM | selectivity ratio [6]: 11.8

C=CCc1ccc(OC(=O)c2ccc(F)cc2)c(OC)c1
EC50 (Leishmania donovani [1]): 78.4 µM | IC50 (Leishmania donovani [2]): 61.3 µM | EC50 (Peritoneal macrophage [3]): 400 µM | selectivity ratio [4]: 5.24 | Activity (Peritoneal macrophage [5]): Dose-dependent effect | Activity (Peritoneal macrophage [5]; record 2): 14.56 µM | IC50 (RAW264.7): 364 µM | selectivity ratio [6]: 5.93

C=CCc1ccc(OC(=O)[C@@H]2CCCN2)c(OC)c1
EC50 (Leishmania donovani [1]): 72.9 µM | IC50 (Leishmania donovani [2]): 97.4 µM | EC50 (Peritoneal macrophage [3]): 326 µM | selectivity ratio [4]: 4.49 | Activity (Peritoneal macrophage [5]): Dose-dependent effect | Activity (Peritoneal macrophage [5]; record 2): 21.87 µM | IC50 (RAW264.7): 278 µM | selectivity ratio [6]: 2.87

C=CCc1ccc(OCCC)c(OC)c1 [PROPYLEUGENOL]
EC50 (Leishmania donovani [1]): 156 µM | IC50 (Leishmania donovani [2]): 133 µM | EC50 (Peritoneal macrophage [3]): 111 µM | selectivity ratio [4]: 0.71 | Activity (Peritoneal macrophage [5]): Dose-dependent effect | Activity (Peritoneal macrophage [5]; record 2): 10.64 µM | IC50 (RAW264.7): 110 µM | selectivity ratio [6]: 0.83

C=CCc1ccc(OC(=O)CCCCCCCCCCC)c(OC)c1
EC50 (Leishmania donovani [1]): 19.6 µM | IC50 (Leishmania donovani [2]): 56.2 µM | EC50 (Peritoneal macrophage [3]): 498 µM | selectivity ratio [4]: 25.9 | Activity (Peritoneal macrophage [5]): Dose-dependent effect | Activity (Peritoneal macrophage [5]; record 2): 34.28 µM | IC50 (RAW264.7): 529 µM | selectivity ratio [6]: 9.36

C=CCc1ccc(OCC)c(OC)c1 [ETHYLEUGENOL]
EC50 (Leishmania donovani [1]): 162 µM | IC50 (Leishmania donovani [2]): 71.7 µM | EC50 (Peritoneal macrophage [3]): 90.5 µM | selectivity ratio [4]: 0.55 | Activity (Peritoneal macrophage [5]): Dose-dependent effect | Activity (Peritoneal macrophage [5]; record 2): 10.43 µM | IC50 (RAW264.7): 102 µM | selectivity ratio [6]: 1.43

C=CCc1ccc(OCC=C(C)C)c(OC)c1
EC50 (Leishmania donovani [1]): 157 µM | IC50 (Leishmania donovani [2]): 242 µM | EC50 (Peritoneal macrophage [3]): 372 µM | selectivity ratio [4]: 2.38 | Activity (Peritoneal macrophage [5]): Dose-dependent effect | Activity (Peritoneal macrophage [5]; record 2): 8.37 µM | IC50 (RAW264.7): 359 µM | selectivity ratio [6]: 1.48

C=CCc1ccc(OC(=O)c2ccc([N+](=O)[O-])cc2)c(OC)c1
EC50 (Leishmania donovani [1]): 26.7 µM | IC50 (Leishmania donovani [2]): 82.4 µM | EC50 (Peritoneal macrophage [3]): 244 µM | selectivity ratio [4]: 9.21 | Activity (Peritoneal macrophage [5]): Dose-dependent effect | Activity (Peritoneal macrophage [5]; record 2): 27.28 µM | IC50 (RAW264.7): 261 µM | selectivity ratio [6]: 3.18

C=CCc1ccc(OC(=O)CCCCCCC)c(OC)c1
EC50 (Leishmania donovani [1]): 53.3 µM | IC50 (Leishmania donovani [2]): 68.3 µM | EC50 (Peritoneal macrophage [3]): 565 µM | selectivity ratio [4]: 11 | Activity (Peritoneal macrophage [5]): Dose-dependent effect | Activity (Peritoneal macrophage [5]; record 2): 24.23 µM | IC50 (RAW264.7): 580 µM | selectivity ratio [6]: 8.95

C=CCc1ccc(OC(C)=O)c(OC)c1 [EUGENYL ACETATE]
EC50 (Leishmania donovani [1]): 99.1 µM | IC50 (Leishmania donovani [2]): 166 µM | EC50 (Peritoneal macrophage [3]): 352 µM | selectivity ratio [4]: 3.59 | Activity (Peritoneal macrophage [5]): Dose-dependent effect | Activity (Peritoneal macrophage [5]; record 2): 12.44 µM | IC50 (RAW264.7): 356 µM | selectivity ratio [6]: 2.15

C=CCc1ccc(OCCCCCCC)c(OC)c1
EC50 (Leishmania donovani [1]): 41.1 µM | IC50 (Leishmania donovani [2]): 61.3 µM | EC50 (Peritoneal macrophage [3]): 197 µM | selectivity ratio [4]: 4.88 | Activity (Peritoneal macrophage [5]): Dose-dependent effect | Activity (Peritoneal macrophage [5]; record 2): 22.43 µM | IC50 (RAW264.7): 198 µM | selectivity ratio [6]: 3.28
